# Test results taken from ChEMBL document CHEMBL3817752, “Antimycobacterial activity of new N(1)-[1-[1-aryl-3-[4-(1H-imidazol-1-yl)phenyl]-3-oxo]propyl]-pyridine-2-carboxamidrazone derivatives” (Bioorg Med Chem Lett, 2016).
# Tested on: Mycobacterium tuberculosis variant bovis
# Test: Antimycobacterial activity against Mycobacterium bovis NCTC 10772 after 7 days by resazurin microtiter assay
# Format: functional
# Details: NCTC 10772, 168 h
row,Structure (SMILES),MIC
1,N/C(=N/NC(CC(=O)c1ccc(-n2ccnc2)cc1)c1ccccc1Cl)c1ccccn1 (stereo not given),18 µM
2,N/C(=N/NC(CC(=O)c1ccc(-n2ccnc2)cc1)c1ccccc1)c1ccccn1 (stereo not given),39 µM
3,N/C(=N/NC(CC(=O)c1ccc(-n2ccnc2)cc1)c1ccc(Cl)cc1Cl)c1ccccn1 (stereo not given),9 µM
4,N/C(=N/NC(CC(=O)c1ccc(-n2ccnc2)cc1)c1ccccc1[N+](=O)[O-])c1ccccn1 (stereo not given),17.6 µM
5,N/C(=N/NC(CC(=O)c1ccc(-n2ccnc2)cc1)c1cccc(F)c1)c1ccccn1 (stereo not given),18.7 µM
6,N/C(=N/NC(CC(=O)c1ccc(-n2ccnc2)cc1)c1cccc([N+](=O)[O-])c1)c1ccccn1 (stereo not given),17.6 µM
7,N/C(=N/NC(CC(=O)c1ccc(-n2ccnc2)cc1)c1ccc(Cl)cc1)c1ccccn1 (stereo not given),18 µM
8,N/C(=N/NC(CC(=O)c1ccc(-n2ccnc2)cc1)c1ccccc1F)c1ccccn1 (stereo not given),18.7 µM
9,N/C(=N/NC(CC(=O)c1ccc(-n2ccnc2)cc1)c1ccc(Br)cc1)c1ccccn1 (stereo not given),8.2 µM
10,N/C(=N/NC(CC(=O)c1ccc(-n2ccnc2)cc1)c1cccc(Br)c1)c1ccccn1 (stereo not given),16.3 µM
11,N/C(=N/NC(CC(=O)c1ccc(-n2ccnc2)cc1)c1ccccc1Br)c1ccccn1 (stereo not given),32.7 µM
12,N/C(=N/NC(CC(=O)c1ccc(-n2ccnc2)cc1)c1cccc(Cl)c1)c1ccccn1 (stereo not given),18 µM
13,N/C(=N/NC(CC(=O)c1ccc(-n2ccnc2)cc1)c1ccc(F)cc1)c1ccccn1 (stereo not given),18.7 µM
14,N/C(=N/NC(CC(=O)c1ccc(-n2ccnc2)cc1)c1ccc([N+](=O)[O-])cc1)c1ccccn1 (stereo not given),35.1 µM
15,NNC(=O)c1ccncc1 [ISONIAZID],7.3 µM
